{"source": "paper PMC10855164", "about": "“Ligand-Based Design of Selective Peptidomimetic uPA and TMPRSS2 Inhibitors with Arg Bioisosteres” (International Journal of Molecular Sciences, 2024)", "biological_target": "T1, tPA (Homo sapiens, UniProt P00750)", "T1 construct": "purchased Sigma Aldrich", "T1 sequence (P00750 36-562)": "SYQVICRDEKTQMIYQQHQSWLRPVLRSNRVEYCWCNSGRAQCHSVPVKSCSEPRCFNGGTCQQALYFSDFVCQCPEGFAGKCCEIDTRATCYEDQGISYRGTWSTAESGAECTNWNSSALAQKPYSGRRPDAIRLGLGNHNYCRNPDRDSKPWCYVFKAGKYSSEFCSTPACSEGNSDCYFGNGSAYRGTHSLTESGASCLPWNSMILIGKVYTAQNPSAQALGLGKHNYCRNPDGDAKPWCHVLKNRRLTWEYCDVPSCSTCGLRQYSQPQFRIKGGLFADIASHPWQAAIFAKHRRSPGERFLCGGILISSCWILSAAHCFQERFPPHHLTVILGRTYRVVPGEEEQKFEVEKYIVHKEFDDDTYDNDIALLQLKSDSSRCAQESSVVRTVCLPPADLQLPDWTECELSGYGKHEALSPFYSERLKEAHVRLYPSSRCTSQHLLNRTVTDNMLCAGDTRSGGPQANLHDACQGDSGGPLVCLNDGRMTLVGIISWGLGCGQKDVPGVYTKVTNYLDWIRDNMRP", "assay": "colorimetric enzyme inhibition assay, tPA (N-methylsulfonyl-D-Phe-Gly-Arg-pNA)", "type": "biochemical", "conditions": "from IC50 by Cheng-Prusoff; n.a. = not active, <80% inhibition at 20 µM", "experimental": "The inhibitory activity of the synthesized compounds towards the respective main- and off-target proteases was measured via fluorometric and colorimetric assays. Thus, fluorogenic AMC- or colorimetric pNA-based substrates with a peptide sequence suitable for the tested protease were utilized (see Supplementary Figure S2). At first, the compounds were screened against […] proteases (uPA, TMPRSS2, matriptase, tPA, thrombin, factor Xa) at 20 µM, and a cut-off value of 80% inhibition at this concentration was set, for the differentiation between nonactive (n.a.) and active inhibitors. Due to the reversible inhibition mechanism of the ketobenzothiazole derivates, the IC50 values were determined with Graphpad Prism 9, and afterwards converted to the corresponding Ki values for an adequate comparison between the inhibitory activities of the compounds toward all tested proteases. The Ki values were calculated using the Cheng–Prusoff equation [43].\nFluorometric inhibition assays\nThe inhibitory activities of the compounds against the proteases were determined by enzyme inhibition assays with fluorogenic or colorimetry-based substrates. The fluorescence, caused by cleaved AMC from the fluorogenic substrates (uPA, matriptase, TMPRSS2, thrombin), was measured in white flat-bottom 96-well plates from Greiner Bio-One using a Tecan Infinite F200 Pro plate reader. The absorption, caused by cleaved pNA from colorimetric substrates (factor Xa and tPA), was measured in transparent flat-bottom 96-well plates from Greiner Bio-One using a Tecan Spark 10M plate reader. All measurements with the main-target proteases (uPA and TMRPSS2) were performed as triplicates and with the off-target proteases (matriptase, factor Xa, tPA, thrombin) as duplicates. The substrates and the compounds were prepared as stock solutions in DMSO. Each well contained a total volume of 200 µL, consisting of 185 µL buffer, 5 µL inhibitor in DMSO or pure DMSO as negative control, 5 µL substrate in DMSO and 5 µL enzyme solution in buffer. Dilution series were prepared for the determination of the inhibition constants. The fluorescence signal and absorbance were measured every 30 s for 10 min at 25 or 37 °C with the corresponding excitation/emission (λex = 380 nm / λem = 460 nm) and absorbance (λabs = 405 nm) wavelengths, depending on the targeted protease. IC50 values for the reversible inhibitors were calculated with Graphpad Prism 9 by fitting the remaining enzymatic activity to the four parameter IC50 equation with Y [%] as the residual enzyme activity , Ymax as the maximum value of the dose response curve at inhibitor concentrations [I] = 0 µM, Ymin as the minimum value at high inhibitor concentrations and s as the hill coefficient.[1] The fluorescence progress curves and sigmoidal dose-response curve for inhibition of uPa by compound 38 is shown exemplary in Figure S2. […]\nDue to the dependence of the IC50 value on the substrate affinity and concentration, the Ki values were calculated with the Cheng-Prusoff equation, using the final substrate concentration [S] and the Michaelis-Menten constant KM, (2) for appropriate comparison of the inhibitory activities to the other enzymes and inhibitors.[1]\nKM values were determined by fitting to the Michaelis-Menten equation using Graphpad Prism 9 with v [ΔF/min] as the substrate hydrolysis rate, vmax as the maximum slope of the dose-response curve, and the substrate [S] concentration.[1] The different substrates were serially diluted in DMSO. […]", "data": [{"smiles": "CC(=O)NCC(=O)NC(C(=O)NC(C)C(=O)NC(CC1CCC(NC(=N)N)CC1)C(=O)c1nc2ccccc2s1)C(C)O", "note": "(stereo not shown) [Compound 38]", "values": [{"measurement": "Ki tPA", "result": "did not inhibit"}]}]}
